# Measured values reported in ChEMBL document CHEMBL2086338, “Design, synthesis, and evaluation of 2-substituted ethenesulfonic acid ester derivatives as protein tyrosine phosphatase 1B inhibitors” (Eur J Med Chem, 2012).
# What was measured:
# [1] = molecular target: T1, Tyrosine-protein phosphatase non-receptor type 2 (Homo sapiens, UniProt P17706); assay: Inhibition of human recombinant TCPTP assessed as inhibition of hydrolysis of […] after 10 mins by spectrophotometry
# T1 sequence (P17706 whole entry): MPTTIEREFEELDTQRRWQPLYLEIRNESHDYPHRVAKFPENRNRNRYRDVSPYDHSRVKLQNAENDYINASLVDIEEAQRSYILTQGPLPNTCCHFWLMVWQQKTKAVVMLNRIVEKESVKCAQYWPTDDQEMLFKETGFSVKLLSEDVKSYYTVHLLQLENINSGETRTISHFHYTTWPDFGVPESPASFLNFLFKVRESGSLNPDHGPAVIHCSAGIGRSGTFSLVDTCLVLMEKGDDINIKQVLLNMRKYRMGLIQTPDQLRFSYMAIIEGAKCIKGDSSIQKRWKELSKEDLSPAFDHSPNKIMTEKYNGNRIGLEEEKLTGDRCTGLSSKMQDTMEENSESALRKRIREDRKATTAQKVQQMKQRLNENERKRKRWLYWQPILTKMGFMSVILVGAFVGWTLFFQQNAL
# Homo sapiens = species on record: Homo sapiens; assay: Selectivity ratio of IC50 for human recombinant TCPT to IC50 for human recombinant PTP1B
# [2] = molecular target: T2, Tyrosine-protein phosphatase non-receptor type 1 (Homo sapiens, UniProt P18031); assay: Inhibition of human recombinant PTP1B assessed as inhibition of hydrolysis of […] after 10 mins by spectrophotometry
# T2 sequence (P18031 whole entry): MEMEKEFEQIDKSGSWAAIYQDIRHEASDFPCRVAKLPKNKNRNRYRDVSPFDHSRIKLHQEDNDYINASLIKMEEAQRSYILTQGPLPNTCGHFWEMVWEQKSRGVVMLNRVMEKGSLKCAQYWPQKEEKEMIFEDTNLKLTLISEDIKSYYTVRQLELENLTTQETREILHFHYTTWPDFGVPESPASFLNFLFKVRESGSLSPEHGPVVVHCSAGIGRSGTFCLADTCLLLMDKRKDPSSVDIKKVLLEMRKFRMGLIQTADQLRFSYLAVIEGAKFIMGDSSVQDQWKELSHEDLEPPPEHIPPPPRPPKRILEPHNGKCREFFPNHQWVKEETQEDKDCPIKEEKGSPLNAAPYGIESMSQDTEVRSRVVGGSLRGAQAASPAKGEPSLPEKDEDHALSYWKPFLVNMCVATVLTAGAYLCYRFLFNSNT
# COS-7 = assay: Cytotoxicity against african green monkey COS7 cells after 48 hrs by MTT assay; assay type: cell-based; conditions: Chlorocebus aethiops, COS-7, 48 h
Structure (SMILES),IC50 [1] [µM],Ratio IC50 (Homo sapiens),IC50 [2] [µM],IC50 (COS-7) [µM]
CCOS(=O)(=O)/C=C/c1ccc(OCCCCNc2nc(-c3ccc(Br)cc3)cs2)cc1,3.6,2,1.3,–
CCCCOS(=O)(=O)/C=C/c1ccc(OCc2ccccc2)cc1OCCc1nc(-c2ccccc2)oc1C,> 100,–,> 100,> 100
O=S(=O)(O)C(F)(F)c1ccc(-c2cccc(F)c2)cc1,–,–,5,–
CCOS(=O)(=O)/C=C/c1ccc(OCc2cc(-c3ccccc3)on2)cc1,> 100,–,> 100,> 100
CCOS(=O)(=O)/C=C/c1ccc(OCCCCNc2nc(-c3cccs3)cs2)cc1,11.2,2,8.6,–
CCOc1ccc(-c2cc(COc3ccc(/C=C/S(=O)(=O)OCC)cc3)no2)cc1,> 100,–,44.4,> 100
CCOS(=O)(=O)/C=C/c1ccc(OCCNc2nc(-c3ccccc3)cs2)cc1,> 100,–,> 100,> 100
CCOS(=O)(=O)/C=C/c1ccc(OCCCCNc2nc(-c3ccccc3Cl)cs2)cc1,5,2,1.4,–
COC(=O)/C=C/c1ccc(/C=C/c2ccc(O)c(O)c2)cc1,–,–,> 14.9,–
CCCCOS(=O)(=O)/C=C/c1ccc(OCCc2csc(-c3ccccc3)n2)cc1,> 100,–,> 100,> 100
CCOS(=O)(=O)/C=C/c1ccc(OCCCCNc2nc(-c3ccccn3)cs2)cc1,31.9,2,1.5,–
CCOS(=O)(=O)/C=C/c1ccc(OCc2ccccc2)cc1OCCc1nc(-c2ccccc2)oc1C,> 100,–,> 100,> 100
CCOS(=O)(=O)/C=C/c1ccc(OCCCCNc2nc(-c3ccc(F)cc3)cs2)cc1,14.1,2,1.3,–
CCCCOS(=O)(=O)/C=C/c1ccc(OCCc2nc(-c3ccccc3)oc2C)cc1,> 100,–,> 100,> 100
CCOS(=O)(=O)/C=C/c1ccc(OCCc2nc(-c3ccccc3)oc2C)cc1,> 100,–,> 100,84.1
CCOS(=O)(=O)/C=C/c1ccc(OCCCCNc2nc(-c3ccccc3F)cs2)cc1,6.4,2,2.5,–
CCOS(=O)(=O)/C=C/Cc1nc(-c2ccccc2)sc1C,> 100,–,> 100,> 100
COS(=O)(=O)/C=C/c1ccc(OCc2ccccc2)cc1OCCc1nc(-c2ccccc2)oc1C,39.6,–,24.5,> 100

# Now from value to compound, other results behind:
IC50 [1] [µM],Ratio IC50 (Homo sapiens),IC50 [2] [µM],Structure (SMILES),IC50 (COS-7) [µM]
8.2,2,2,CCOS(=O)(=O)/C=C/c1ccc(OCCCCNc2nc(-c3cccc(OC)c3)cs2)cc1,–
10.6,–,5.8,CCOS(=O)(=O)/C=C/c1ccc(OCCCCNc2nc(-c3ccccc3)c(C)s2)cc1,–
41.2,–,38.4,CCOS(=O)(=O)/C=C/c1ccc(OCc2ccccc2)cc1OCCc1csc(-c2ccccc2)n1,> 100
23.4,–,9.6,CCOS(=O)(=O)/C=C/c1ccc(OCCCCNc2nc(-c3ccccc3)c(-c3ccccc3)s2)cc1,–
5.7,2,3.3,CCOS(=O)(=O)/C=C/c1ccc(OC)c(OCCCCNc2nc(-c3ccccc3)cs2)c1,–
26.2,–,22,CCOS(=O)(=O)/C=C/c1ccc(OCCCCNc2nc(-c3ccccc3)cs2)cc1,> 100
> 100,–,> 100,CCOS(=O)(=O)/C=C/c1ccc(OCc2ccccc2)cc1OCCc1nc(-c2ccccc2)sc1C,> 100
8.7,2,2.4,CCOS(=O)(=O)/C=C/c1ccc(OCCCCNc2nc(-c3cccc4ccccc34)cs2)cc1,–
> 100,–,15.1,CCOS(=O)(=O)/C=C/c1ccc(OCCCCNc2nc(-c3ccccc3)c(C)s2)c(OC)c1,–
8.6,–,2.6,CCOS(=O)(=O)/C=C/c1ccc(OCCCCNc2nc(-c3ccccc3)c(-c3ccccc3)s2)c(OC)c1,–
> 100,2,10.4,CCOS(=O)(=O)/C=C/c1ccc(OCCCCNc2nc(-c3ccc(OC)cc3)cs2)cc1,–
29.5,–,24.8,CCOS(=O)(=O)/C=C/c1ccc(OCCCNc2nc(-c3ccccc3)cs2)cc1,> 100
11.6,2,5.1,CCOS(=O)(=O)/C=C/c1ccc(OC)c(OCCCCNc2nc(-c3ccccc3)c(-c3ccccc3)s2)c1,–
15.7,2,1.9,CCOS(=O)(=O)/C=C/c1ccc(OCCCCNc2nc(-c3ccc(-c4ccccc4)cc3)cs2)cc1,–
15.6,2,9.7,CCOS(=O)(=O)/C=C/c1ccc(OC)c(OCCCCNc2nc(-c3ccccc3)c(C)s2)c1,–
